Results published in PMC10762375 (Computational and Structural Biotechnology Journal, 2023).
Numbering of substitutions follows the chain as printed.

Key:
hP2X3 WT = molecular target: T1, hP2X3 WT (Homo sapiens, UniProt P56373); experiment: Nystatin perforated patch recording of ATP-evoked currents, transfected HEK293 cells; assay type: cell-based; details: Hill 1 fit
T1 construct: host or cells: HEK293
T1 sequence (P56373 1-397): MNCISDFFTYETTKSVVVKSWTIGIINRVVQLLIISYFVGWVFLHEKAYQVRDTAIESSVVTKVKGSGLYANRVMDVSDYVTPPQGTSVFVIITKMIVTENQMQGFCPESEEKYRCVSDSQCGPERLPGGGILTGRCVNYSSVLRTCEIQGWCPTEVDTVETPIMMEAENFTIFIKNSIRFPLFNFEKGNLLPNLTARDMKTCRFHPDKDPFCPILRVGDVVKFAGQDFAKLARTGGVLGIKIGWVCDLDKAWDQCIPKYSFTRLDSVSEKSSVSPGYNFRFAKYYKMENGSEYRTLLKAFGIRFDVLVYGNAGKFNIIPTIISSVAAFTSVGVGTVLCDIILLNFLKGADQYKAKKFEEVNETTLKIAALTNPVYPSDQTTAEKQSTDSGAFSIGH

hP2X3 R204A = molecular target: T2, hP2X3 R204A (Homo sapiens, UniProt P56373, R204A); experiment: as above; assay type: cell-based
T2 construct: expressed in transfected cells; host or cells: HEK293
T2 sequence (P56373 1-397 R204A): T1 sequence (P56373 1-397) with R204A

rP2X3 WT = molecular target: T3, rP2X3 WT (Rattus norvegicus, UniProt P49654); experiment: as above; assay type: cell-based; details: Hill 1 fit, mean ± s.e.m.
T3 construct: EGFP (only implied by the anti-EGFP blot of rP2X3 plasmids); expressed in transfected cells; host or cells: HEK293
T3 sequence (P49654 1-397): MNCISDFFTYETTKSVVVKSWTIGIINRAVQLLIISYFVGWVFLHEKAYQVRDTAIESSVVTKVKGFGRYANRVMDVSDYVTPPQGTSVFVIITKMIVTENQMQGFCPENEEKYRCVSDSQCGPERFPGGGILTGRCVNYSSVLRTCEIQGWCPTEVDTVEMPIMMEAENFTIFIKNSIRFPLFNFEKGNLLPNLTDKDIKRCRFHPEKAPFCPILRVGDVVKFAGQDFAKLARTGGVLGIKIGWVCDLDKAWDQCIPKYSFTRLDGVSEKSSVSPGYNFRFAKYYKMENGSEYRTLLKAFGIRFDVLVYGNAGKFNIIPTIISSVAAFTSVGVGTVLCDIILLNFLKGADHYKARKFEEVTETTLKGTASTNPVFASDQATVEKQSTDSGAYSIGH
Procedure: As we described previously, [41], [42], human embryonic kidney (HEK 293) cells were purchased from Shanghai Institutes for Biological Sciences and cultured in Dulbecco's Modified Eagle Medium supplemented with 10% fetal bovine serum (FBS), 1% penicillin-streptomycin and 1% GlutaMAX™ at 37 °C, 5% CO2 and 95% air in a humidified environment. Plasmids were transfected into cells using transfection agents containing two solutions (Solution A: 250 mM CaCl2 in pure water; Solution B (in mM): 1.5 Na2HPO4, 140 NaCl and 50 HEPES, pH adjusted to 6.96). […]
Nystatin (0.15 mg/mL) was diluted with a high potassium internal solution containing (in mM): 75 K2SO4, 55 KCl, 5 MgSO4, and 10 HEPES (pH 7.4). The ckP2X7 and rP2X2 receptor currents were recorded using conventional whole-cell patch configuration. At 24–48 h after transfection, HEK293 cells were recorded using an Axopatch 200B amplifier (Molecular Devices, USA) at room temperature (25 ± 2 °C), with holding a potential of − 60 mV. Current data were sampled at 10 kHz, filtered at 2 kHz, and analyzed using the PCLAMP 10 software (Molecular Devices, USA). […]
All electrophysiological recordings were analyzed using Clampfit 10.6 (Molecular Devices). Pooled data were expressed as mean and standard error of the mean (s.e.m.). […]

ckP2X7 T202W = assay type: cell-based, chicken
hP2X3 K113A = molecular target: T4, hP2X3 K113A (Homo sapiens, UniProt P56373, K113A); experiment: Nystatin perforated patch recording of ATP-evoked currents, transfected HEK293 cells; assay type: cell-based
T4 construct: expressed in transfected cells; host or cells: HEK293
T4 sequence (P56373 1-397 K113A): T1 sequence (P56373 1-397) with K113A

rP2X2 K212A = molecular target: T5, rP2X2 K212A (Rattus norvegicus, UniProt P49653, K212A); experiment: Conventional whole-cell patch recording of ATP-evoked currents, transfected HEK293 cells; assay type: cell-based
T5 construct: expressed in transfected cells; host or cells: HEK293
T5 sequence (P49653 1-472 K212A): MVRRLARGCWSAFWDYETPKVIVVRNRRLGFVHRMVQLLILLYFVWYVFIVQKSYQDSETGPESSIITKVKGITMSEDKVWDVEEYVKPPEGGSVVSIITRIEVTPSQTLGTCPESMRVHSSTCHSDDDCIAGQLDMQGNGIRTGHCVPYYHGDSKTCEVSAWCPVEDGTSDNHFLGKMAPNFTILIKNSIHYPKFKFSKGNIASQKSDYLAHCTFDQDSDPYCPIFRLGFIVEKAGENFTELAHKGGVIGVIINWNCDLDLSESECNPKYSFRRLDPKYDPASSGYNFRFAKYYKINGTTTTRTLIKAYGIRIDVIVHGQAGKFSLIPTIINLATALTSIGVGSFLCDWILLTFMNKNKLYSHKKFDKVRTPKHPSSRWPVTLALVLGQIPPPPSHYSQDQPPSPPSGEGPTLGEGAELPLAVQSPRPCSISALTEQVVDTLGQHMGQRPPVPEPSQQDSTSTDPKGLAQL
Procedure: (§1) As we described previously, [41], [42], human embryonic kidney (HEK 293) cells were purchased from Shanghai Institutes for Biological Sciences and cultured in Dulbecco's Modified Eagle Medium supplemented with 10% fetal bovine serum (FBS), 1% penicillin-streptomycin and 1% GlutaMAX™ at 37 °C, 5% CO2 and 95% air in a humidified environment. Plasmids were transfected into cells using transfection agents containing two solutions (Solution A: 250 mM CaCl2 in pure water; Solution B (in mM): 1.5 Na2HPO4, 140 NaCl and 50 HEPES, pH adjusted to 6.96). After mixing 2.5–3 μg of the plasmid and solution A, the mixture was added dropwise to an equal volume of solution B, followed by stirring with a pipette tip. The mixture was left to stabilize at room temperature for 3–5 min and then added to the cell culture dish. After 6 h of transfection, the medium in the culture dish was replaced with fresh medium.
(§2) Nystatin (0.15 mg/mL) was diluted with a high potassium internal solution containing (in mM): 75 K2SO4, 55 KCl, 5 MgSO4, and 10 HEPES (pH 7.4). The ckP2X7 and rP2X2 receptor currents were recorded using conventional whole-cell patch configuration. At 24–48 h after transfection, HEK293 cells were recorded using an Axopatch 200B amplifier (Molecular Devices, USA) at room temperature (25 ± 2 °C), with holding a potential of − 60 mV. Current data were sampled at 10 kHz, filtered at 2 kHz, and analyzed using the PCLAMP 10 software (Molecular Devices, USA). HEK293 cells were bathed in standard extracellular solution (SS) containing (in mM): 150 NaCl, 5 KCl, 2 CaCl2, 1 MgCl2, 10 glucose, and 10 HEPES (pH 7.4, by Tris-base). For conventional whole-cell recordings, the pipette solution consisted of (in mM): 120 KCl, 30 NaCl, 0.5 CaCl2, 1 MgCl2, 5 EGTA, and 10 HEPES (pH 7.4, by Tris-base). ATP and drugs were dissolved in standard extracellular solution and administered with a Y-tube.
(§3) All electrophysiological recordings were analyzed using Clampfit 10.6 (Molecular Devices). Pooled data were expressed as mean and standard error of the mean (s.e.m.). Comparisons between multiple independent groups were performed using one-way ANOVA followed by Dunnett's tests. Comparisons between two groups were made using paired (before and after engineered disulfide bond cross-linking) or unpaired Student’s t tests, as appropriate.

rP2X2 WT = molecular target: T6, rP2X2 WT (Rattus norvegicus, UniProt P49653); experiment: as above; assay type: cell-based
T6 construct: expressed in transfected cells; host or cells: HEK293
T6 sequence (P49653 1-472): T5 sequence (P49653 1-472 K212A) with A212K
Procedure: as §1, §2, §3

rP2X2 V119W/H120W = molecular target: T7, rP2X2 V119W/H120W (Rattus norvegicus, UniProt P49653, H120W/V119W); experiment: as above; assay type: cell-based
T7 construct: expressed in transfected cells; host or cells: HEK293
T7 sequence (P49653 1-472 V119W/H120W): T5 sequence (P49653 1-472 K212A) with V119W, H120W, A212K
Procedure: as §1, §2, §3

rP2X3 K201C/V274C = molecular target: T8, rP2X3 K201C/V274C (Rattus norvegicus, UniProt P49654, K201C/V274C); experiment: Nystatin perforated patch recording of ATP-evoked currents, transfected HEK293 cells; assay type: cell-based; details: Hill 1 fit
T8 construct: EGFP (only implied by the anti-EGFP blot of rP2X3 plasmids); expressed in transfected cells; host or cells: HEK293
T8 sequence (P49654 1-397 K201C/V274C): T3 sequence (P49654 1-397) with K201C, V274C

F 174 A mutant of hP2X3 = tested on: F 174 A mutant of hP2X3; set-up: method as in PMID 24223907; details: hP2X3 F174A; cited from earlier work

SMILES	EC50 (hP2X3 WT) [nM]	EC50 (hP2X3 R204A) [nM]	EC50 (rP2X3 WT) [nM]	reduction in affinity to ATP vs WT (ckP2X7 T202W)	EC50 (hP2X3 K113A) [nM]	EC50 (rP2X2 K212A; rP2X2 K212A) [µM]	EC50 (rP2X2 WT; rP2X2 WT) [µM]	EC50 (rP2X2 V119W/H120W; rP2X2 V119W/H120W) [µM]	EC50 (rP2X3 K201C/V274C) [µM]	effect of mutation on inhibition by TNP-ATP (F 174 A mutant of hP2X3)	enhancement of apparent affinity of TNP-ATP vs WT (ckP2X7 T202W; 1 mM ATP)	IC50 (rP2X2 K212A) [µM]	reduction of potency of inhibition by TNP-ATP vs WT (rP2X2 K212A; rP2X2 K212A vs rP2X2 WT) [fold]	IC50 (rP2X2 WT) [µM]	IC50 (rP2X2 V119W/H120W) [µM]	reduction of sensitivity to TNP-ATP inhibition vs WT (rP2X2 V119W/H120W; rP2X2 V119W/H120W vs rP2X2 WT) [fold]
Nc1ncnc2c1ncn2[C@@H]1O[C@H](COP(=O)(O)OP(=O)(O)OP(=O)(O)O)[C@@H](O)[C@H]1O [ATP]	767 ± 99	1220 ± 220	832 ± 143	approximately 60 fold	872 ± 232	9.83 ± 0.34	5.39 ± 0.11	221 ± 36	12.9 ± 2.7							
Nc1ncnc2c1ncn2[C@@H]1O[C@H](COP(=O)(O)OP(=O)(O)OP(=O)(O)O)[C@H]2OC3(O[C@H]21)C([N+](=O)[O-])=CC(=[N+]([O-])[O-])C=C3[N+](=O)[O-] (stereo partly shown) [TNP-ATP, 2',3'-O-(2,4,6-trinitrophenyl)-ATP]										does not alter the inhibition	about 38 fold	15.8 ± 2	~5	3.14 ± 0.95	24.9 ± 5	~8
